Measurements taken from patent US20220388962A1 (Biohaven Therapeutics Ltd., priority 2019, published 2022).
Structures can show the parent of a compound that is named as a salt.

biological target: T1, TDP-43 (Homo sapiens, UniProt Q13148); assay: TDP-43-DNA alpha-screen assay (bt-TAR-32 displacement); format: binding; conditions: bt-TAR-32 0.125 nM, 15 ng/ml TDP-43
How it was run: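 GST-TDP-43 (15 ng/ml final) on anti-GST acceptor beads pre-incubated 30 min at 23 °C with compound (50 to 0.02 μM, half-log) in 25 mM Tris pH 7.4, 0.1% BSA, 0.1% Triton X-100. Biotinylated TAR-32 DNA (0.125 nM final) on streptavidin donor beads added, 90 min at 23 °C dark; AlphaScreen signal fitted for IC50.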

T1 sequence (Q13148 whole entry): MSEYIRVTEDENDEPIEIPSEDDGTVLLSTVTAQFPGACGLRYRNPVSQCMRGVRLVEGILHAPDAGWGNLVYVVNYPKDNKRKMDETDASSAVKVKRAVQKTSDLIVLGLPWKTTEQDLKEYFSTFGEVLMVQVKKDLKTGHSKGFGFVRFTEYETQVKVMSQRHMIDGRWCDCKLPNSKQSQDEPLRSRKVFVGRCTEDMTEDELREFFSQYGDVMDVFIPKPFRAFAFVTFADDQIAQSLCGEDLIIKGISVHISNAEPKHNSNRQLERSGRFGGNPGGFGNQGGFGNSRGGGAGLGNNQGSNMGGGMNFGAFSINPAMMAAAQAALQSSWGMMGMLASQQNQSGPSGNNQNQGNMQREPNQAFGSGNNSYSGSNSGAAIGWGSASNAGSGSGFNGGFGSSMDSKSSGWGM

SMILES | IC50 [nM]
COc1ccc(-c2cc(NCCCNC3CCC4CN(Cc5ccccc5)CC43)c3ccccc3n2)cc1 (centres unmarked) [Example 70, N^1-(2-Benzyloctahydrocyclopenta[c]pyrrol-4-yl)-N^3-(2-(4-methoxyphenyl)quinolin-4-yl)propane-1,3-diamine trihydrochloride] | 170
COc1ccc(-c2cc(NCCCN(C)CCCN)c3ccccc3n2)c(C)c1 [Example 10, N^1-(3-Aminopropyl)-N^3-(2-(2-methyl-4-methoxyphenyl)quinolin-4-yl)-N^1-methylpropane-1,3-diamine] | 650
COc1ccc(-c2cc(N[C@H]3C[C@@H](N)C3)c3ccccc3n2)cc1 [Example 112] | 490
COc1ccc(-c2cc(NCCCN(C)C)c3ccccc3n2)cn1 [Example 139] | 6510
COc1ccc(-c2cc(NCCCN(CC3CCN(C(=O)OC(C)(C)C)CC3)CC3CCN(C(=O)OC(C)(C)C)CC3)c3ccccc3n2)cc1 [Example 58, tert-Butyl 4-{[({1-[(tert-butoxy)carbonyl]piperidin-4-yl}methyl)(3-{[2-(4-methoxyphenyl)-quinolin-4-yl]amino}propyl)amino]methyl}piperidine-1-carboxylate] | 26700
COc1ccc(-c2cc(NCCCN(CCCN)C(C)=O)c3ccccc3n2)cc1 [Example 16, N-(3-(2-(4-Methoxyphenyl)quinolin-4-ylamino)propyl)-N-(3-aminopropyl) acetamide] | 1420
COCCCNCCCNc1cc(-c2ccc(OC)cc2)nc2ccccc12 [Example 15, N-(3-(3-methoxypropylamino)propyl)-2-(4-methoxyphenyl)quinolin-4-amine] | 800
CN(C)CCCNc1cc(-c2ccc3occc3c2)nc2ccccc12 [Example 124] | 1280
CNCCCN(C)CCCNc1cc(-c2ccc(OC)cc2)nc2ccccc12 [Example 2, 2-(4-Methoxyphenyl)-N-(3-{methyl[3-(methylamino)propyl]-amino}propyl) quinolin-4-amine] | 110
COc1ccc(-c2cc(NCCCN(CCCN(C)C)CC3CCN(C(=O)OC(C)(C)C)CC3)c3ccccc3n2)cc1 [Example 19, tert-Butyl 4-(((3-(dimethylamino)propyl)(3-((2-(4-methoxyphenyl)quinolin-4-yl)amino)propyl)amino)methyl)piperidine-1-carboxylate] | 950
CN1CCC(n2cc(-c3cc(NCCCN)c4ccccc4n3)cn2)CC1 [Example 93] | 90
COc1ccc(-c2cc(NCCCN(C)CCCN)c3cc(OC)c(OC)cc3n2)cc1 [Example 94] | 100
COc1ncc(-c2cc(NCCCN(C)C)c3ccccc3n2)cn1 [Example 136] | 38500
COc1ccc(-c2cc(NCCCNCc3ccnn3C)c3ccccc3n2)cc1 [Example 53, N^1-(2-(4-Methoxyphenyl)quinolin-4-yl)-N^3-((1-methyl-1H-pyrazol-5-yl)methyl) propane-1,3-diamine dihydrochloride] | 3270
CN(C)CCCNc1cc(-c2cnn(C3CC3)c2)nc2ccccc12 [Example 127] | 1510
NCCCNc1cc(-c2ccco2)nc2ccccc12 [Example 131] | 2550
COc1ccc(-c2cc(NCCCN(C)CCC3CCCCN3)c3ccccc3n2)cc1 (centres unmarked) [Example 31, N^1-(2-(4-methoxyphenyl)quinolin-4-yl)-N^3-methyl-N^3-(2-(piperidin-2-yl)ethyl)propane-1,3-diamine] | 350
COc1ccc(-c2cc(NCCCNC3CCC4CNCC43)c3ccccc3n2)cc1 (centres unmarked) [Example 33, N^1-(2-(4-Methoxyphenyl)quinolin-4-yl)-N^3-(octahydrocyclopenta[c]pyrrol-4-yl)propane-1,3-diamine dihydrochloride] | 180
COc1ccc(-c2cc(NCCCN3CC4CNCC4C3)c3ccccc3n2)cc1 (centres unmarked) [Example 23, N-(3-(Hexahydropyrrolo[3,4-c]pyrrol-2(1H)-yl)propyl)-2-(4-methoxyphenyl) quinolin-4-amine] | 240

The next lines start with the values.

IC50 [nM] | SMILES
45600 | Cc1cc(NCCCN(C)C)c2ccccc2n1 [Example 137]
1660 | COc1ccc(-c2cc(NCCCN(C)C(=O)[C@H](C)N)c3ccccc3n2)cc1 [Example 129]
1350 | COc1ccc(-c2cc(NC3CCC(NCCCNC(=O)OC(C)(C)C)CC3)c3ccccc3n2)cc1 (centres unmarked) [Example 61, tert-Butyl(3-((4-((2-(4-methoxyphenyl)quinolin-4-yl)amino)cyclohexyl)amino)propyl)carbamate]
1190 | COc1ccc(-c2cc(NCCCN3CCCN(C)CC3)c3ccccc3n2)cc1 [Example 43, 2-(4-Methoxyphenyl)-N-(3-(4-methyl-1,4-diazepan-1-yl)propyl)quinolin-4-amine]
970 | COc1ccc(-c2cc(NCCCNc3ccc(N4CCCCC4)cc3)c3ccccc3n2)cc1 [Example 55, N^1-(2-(4-Methoxyphenyl)quinolin-4-yl)-N^3-(4-(piperidin-1-yl)phenyl) propane-1,3-diamine dihydrochloride]
900 | COc1ccc(-c2cc(NCCCNCCCO)c3ccccc3n2)cc1 [Example 14, 3-((3-((2-(4-Methoxyphenyl)quinolin-4-yl)amino)propyl)amino)-propan-1-ol]
470 | COc1ccc(-c2cc(NC3CCN(C4CCN(C)CC4)CC3)c3ccccc3n2)cc1 [Example 69, 2-(4-Methoxyphenyl)-N-(1′-methyl-[1,4′-bipiperidine]-4-yl)quinolin-4-amine]
330 | COc1ccc(-c2cc(NCCCN(C)CCCN(C)CCF)c3ccccc3n2)cc1 [Example 13, N^1-(2-fluoroethyl)-N^3-(3-((2-(4-methoxyphenyl)quinolin-4-yl)amino)propyl)-N^1,N^3-dimethylpropane-1,3-diamine]
230 | COc1ccc(-c2cc(N[C@H]3CC[C@@H](N)CC3)c3cc(OC)c(OC)cc3n2)cc1 [Example 105]
220 | COc1ccc(-c2cc(NCCCN(C)CCCN)c3c(F)cccc3n2)cc1 [Example 7, N^1-(3-aminopropyl)-N^3-(5-fluoro-2-(4-methoxyphenyl)quinolin-4-yl)-N^1-methyl propane-1,3-diamine]
220 | CN(C)CCCNc1cc(-c2ccc(N3CCNCC3)cc2)nc2ccc(F)cc12 [Example 103, N-(3-(dimethylamino)propyl)-6-fluoro-2-(4-(piperazin-1-yl)phenyl)quinolin-4-amine]
100 | COc1ccc(-c2cc(NCCCN(C)CC3CCNCC3)c3ccccc3n2)cc1 [Example 48, N-(3-(N-Methyl-N-((piperidin-4-yl)methyl)amino)propyl)-2-(4-methoxyphenyl)quinolin-4-amine]
80 | COc1ccc(-c2cc(NCCCNCCCN)c3ccccc3n2)cc1 [Example 8, N-{3-[(3-Aminopropyl)amino]propyl}-2-(4-methoxyphenyl)quinolin-4-amine trihydrochloride]
50 | COc1cc2nc(-c3ccc(N4CCNCC4)cc3)cc(NCCCN(C)C)c2cc1OC [Example 87, N-(3-(dimethylamino)propyl)-6,7-dimethoxy-2-(4-(piperazin-1-yl)phenyl)quinolin-4-amine]

biological target: T1, TDP-43; assay: not given; conditions: using bt-(TG)6, not bt-TAR32; cited from earlier work

SMILES | activity in TDP-43 alpha-screen
COc1ccc(-c2cc(NCCCN(C)C)c3ccccc3n2)cc1 [(XXVIII)] | active

biological target: T1, TDP-43; assay: not given; conditions: previously reported; cited from earlier work

SMILES | caspase-7 cleavage of TDP-43
COc1ccc(-c2cc(NCCCN(C)C)c3ccccc3n2)cc1 [(XXVIII)] | promoted caspase-7 cleavage of TDP-43
